From patent publication US20080275134A1, “Methods for Treatment of Retinal Degenerative Disease” (University of Washington, priority 2005, published 2008)

Legend:
isomerase = target: T1, isomerase (Bos taurus, UniProt Q28175); assay: isomerase reaction: 11-cis-retinol production by RPE microsomes from all-trans-retinol; format: biochemical, bovine
T1 construct: Purified RPE microsomes were the source of the enzymes; from tissue; host or cells: bovine retinal pigment epithelium microsomes
T1 sequence (Q28175 2-533 limits assumed): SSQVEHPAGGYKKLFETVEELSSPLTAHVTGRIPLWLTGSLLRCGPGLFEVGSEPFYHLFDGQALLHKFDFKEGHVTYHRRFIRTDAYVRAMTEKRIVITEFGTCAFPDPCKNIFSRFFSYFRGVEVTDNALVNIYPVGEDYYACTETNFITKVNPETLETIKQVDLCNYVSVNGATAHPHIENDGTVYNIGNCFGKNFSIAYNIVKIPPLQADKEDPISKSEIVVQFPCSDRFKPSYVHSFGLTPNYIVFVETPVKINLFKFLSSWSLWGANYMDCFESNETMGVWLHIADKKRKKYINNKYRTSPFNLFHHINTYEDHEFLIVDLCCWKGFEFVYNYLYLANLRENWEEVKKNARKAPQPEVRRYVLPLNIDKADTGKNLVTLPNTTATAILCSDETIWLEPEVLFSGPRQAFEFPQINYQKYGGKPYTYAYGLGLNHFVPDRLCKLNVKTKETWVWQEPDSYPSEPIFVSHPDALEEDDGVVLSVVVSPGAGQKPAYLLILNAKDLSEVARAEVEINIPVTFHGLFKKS
Procedure: To test if 11-cis-retinylamine (11-cis Ret-NH2) affects isomerization and esterification, an in vitro assay was employed. In this assay both of the all-trans-retinyl esters formed in the reaction catalyzed by LRAT and 11-cis-retinol production by isomerase were measured (6). Purified RPE microsomes were the source of the enzymes, and all-trans-retinol was the substrate. […] Inhibition of isomerization by Ret-NH2 is not due to binding of CRALBP or competition with 11-cis-retinol for binding to CRALBP. […] An increased concentration of all-trans-retinol lowered the level of inhibition, as illustrated in FIG. 2B. […] Dixon's and Lineweaver-Burk plots in the standard assay conditions yielded Ki=0.1 μM for Ret-NH2 when all-trans-retinol (KM=0.3 μM) was assumed to be a substrate. […] This estimated value reflects the very potent nature of the inhibition by 11-cis-Ret-NH2.
Materials—Fresh bovine eyes were obtained from a local slaughterhouse (Schenk Packing Co., Inc., Stanwood, Wash.). Preparation of bovine RPE microsomes was performed according to previously described methods (Stecher et al., J Biol Chem 274:8577-85, 1999). All chemicals were purchased from Sigma-Aldrich (St. Louis, Mo.). 11-cis-Retinal was obtained from Dr. Rosalie Crouch (Charleston, S.C.).
Reaction conditions for isomerase and LRAT reaction—The isomerase reaction was performed essentially as described previously (Stecher et al., J Biol Chem 274:8577-85, 1999). The reaction was carried out in 10 mM BTP buffer, pH 7.5, 1% BSA, containing 1 mM ATP and 6 μM apo-CRALBP. To investigate inhibition properties of Ret-NH2 and its derivatives, RPE microsomes were preincubated for 5 min in 37° C. with the indicated compound in 10 mM BTP buffer, pH 7.5, 1% BSA, 1 mM ATP prior to addition of apo-CRALBP and all-trans-retinol. Ret-NH2 and its derivatives were delivered to the reaction mixture in 1 μl of DMF, and the same volume of DMF was added to the control reaction. Each experiment was performed three times in duplicate. The average values were used and the standard deviations were calculated.

[1] = system: regeneration of vision chromophore (11-cis-retinal); assay: regeneration of 11-cis-retinal in mouse eyes after gavage and light bleach, HPLC retinoid analysis; format: in vivo
Procedure: Mice were gavaged with all-trains-Ret-NH2, exposed to intense light for 20 min, and then allowed to recover in the dark for 5 hours. The total amount of different forms of retinoids in all experiments was unchanged. […] For this experiment mice were treated with both 9-cis-retinol and all-trans-Ret-NH2, and bleached after 24 hours, and were allowed to recover for 5 hours in the dark. The presence of 9-cis-retinal was confirmed in treated animals (see peaks 4 and 4′ in FIG. 4A bottom panel, corresponding to syn- and anti-9-cis-retinal oximes, respectively). 11-cis-Retinal was not reduced and/or esterified after treatment with Ret-NH2. […] This supports the idea that Ret-NH2 is a specific inhibitor of the isomerization reaction.
A. Chromatographic separation of nonpolar retinoids from WT mouse eyes. Mice were gavaged with all-trans-Ret-NH2 24 hours prior to bleaching for 20 min at 150 cd·m^−2 W in the Ganzfeld chamber. Regeneration of 11-cis-retinal was allowed for 24 hours in the dark, and retinoids were extracted from the eye and separated by normal phase HPLC as described in Materials and Methods. The peaks were identified based on elution time and absorption spectra correspond to the following retinoids: 1, all-trans-retinyl esters; 2,2′, syn- and anti-11-cis-retinal oximes; 3, syn-all-trans-retinal oxime; 4,4′, syn- and anti-9-cis-retinal oximes; 5, all-trans-retinol. B. Changes of 11-cis-retinal oxime levels at increasing doses of all-trans-Ret-NH2 during 5 hours or 24 hours of dark adaptation. Square indicates the level of 11-cis-retinal oximes that was present in mice gavaged with vegetable oil without retinoids just after bleaching, and arrow indicates the increase of visual chromophore during 5 hours of dark adaptation. Triangles correspond to the level of 11-cis-retinal found in the mice gavaged with 50 mg/kg of 13-cis-RA. C and D. Single flash ERG responses of increasing intensity for all-trans-Ret-NH2 treated mice and control mice. Serial responses to increasing flash stimuli were obtained for all-trans-Ret-NH2 treated and control mice for selected intensities (C) and plotted as a function of a-wave and b-wave versus varying light intensities under dark-adapted conditions (D) before bleach and at 5 hours and 24 hours after bleach. The dark-adapted mice were bleached with intense constant illumination (150 cd·m^−2) for 20 min. […] SE bars are shown.
Chromatographic separation of nonpolar retinoids from WT mouse eyes. Mice were gavaged with 100 mg/kg of all-trans-Ret-NH2 24 hours prior to bleaching. Mice were next exposed to 500 cd m^−2 for 48 min bleaching in the Ganzfeld chamber. Regeneration of 11-cis-retinal was allowed for 24 hours in the dark, and retinoids were extracted from the eye and separated by normal phase HPLC as described in Materials and Methods. The peaks identified based on elution time and absorption spectra correspond to the following retinoids: 1, all-trans-retinyl esters; 2,2′, syn- and anti-1-cis-retinal oximes; 3,3′ syn- and anti-all-trans-retinal oximes; 4, all-trans-retinol.
Mice were gavaged with the solution of inhibitor in vegetable oil (control—non-treated, RPN—retinylpalmitamide, RAN—retinylacetamide, Ret—NH2-all-trans-retinylamine), kept in dark for 16 hours, then light stimulated and kept in dark for additional 5 hours before their eyes were analyzed.
Mouse retinoid extraction and analysis—Retinoid analysis was performed under dim red light as described previously (Maeda et al., J. Neurochem 85:944-956, 2003; Van Hooser et al., J Biol Chem 277:19173-82, 2002). Mice were gavaged with retinoids as described previously (Van Hooser et al., J Biol Chem 277:19173-82, 2002).

Compound	Ki (isomerase; Dixon's and Lineweaver-Burk plots, standard assay conditions, all-trans-retinol assumed to be substrate, estimated value)	mode of isomerase inhibition (isomerase; initial rate vs concentrations of all-trans-retinol and 11-cis-Ret-NH2)	change in amount of Ret-NH2 between start and end of the assay (HPLC) (isomerase; time course of the in vitro isomerase assay)	IC50 of chromophore recovery, 5 hours recovery ([1]; 20 min high-intensity light, 5 hours dark)	IC50 of chromophore recovery, 24 hours recovery ([1]; 20 min high-intensity light, 24 hours dark)	recovery of chromophore after all 11-cis-retinal is photoisomerized ([1]; longer light treatment (100 mg/kg, 500 cd m^-2 for 48 min, 24 hours dark))	IC50 (isomerase; RPE microsomes, all-trans-retinol substrate, read-out: IC50, inhibition of 11-cis-retinol production)	retinoid levels in the eye without light exposure ([1]; 50 mg/kg, not exposed to light, after 30 hours)	11-cis-retinal in the eye after bleach and dark recovery ([1]; gavage, intense light 20 min, 5 hours in the dark)	levels of all-trans-retinyl esters in the eye ([1]; gavage, intense light 20 min, 5 hours in the dark, vs controls)	uptake, transport or oxidation of 9-cis-retinol ([1]; mice given 9-cis-retinol and all-trans-Ret-NH2, bleached after 24 hours, 5 hours dark)
CC1=C(/C=C/C(C)=C/C=C/C(C)=C/CN)C(C)(C)CCC1 [Ret-NH2, Retinylamine]	0.1 µM	reversible and can be competed out by all-trans-retinol	≤ 5%	2 mg/kg	24 mg/kg	completely blocks recovery of chromophore	–	–	–	–	–
CC1=C(/C=C/C(C)=C/C=C/C(C)=C/CN)C(C)(C)CCC1 [all-trans-Ret-NH2, all-trans-retinylamine]	–	–	–	–	–	–	0.5 µM	normal levels of retinoids	only a residual amount	elevated	did not affect
